Reference: PubChem BioAssay (NCI)
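1) Cells in 96-well plates. 2) Compound, 48 h, 5 concentrations. 3) Linear interpolation between surrounding doses. 4) Unreached endpoint = highest concentration. The concentration for 50% growth inhibition is given as GI50. Definition used: TGI = concentration required for complete inhibition of growth.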

How the values were obtained:
Experiment in all cases: NCI anticancer screen, dose series, 48 h
[1] = test system: K-562 leukemia
[2] = test system: U251 CNS
[3] = test system: HOP-62 NSCLC
[4] = test system: EKVX NSCLC
[5] = test system: SK-MEL-5 melanoma
[6] = test system: HT29 colon
[7] = test system: RPMI-8226 leukemia
[8] = test system: SF-539 CNS
[9] = test system: 786-0 renal
[10] = test system: M14 melanoma

Row | SMILES | TGI [1] | TGI [2] | TGI [3] | TGI [4] | TGI [5] | TGI [6] | TGI [7] | TGI [8] | TGI [9] | TGI [10] | GI50 [1] | GI50 [2] | GI50 [3] | GI50 [4] | GI50 [5] | GI50 [6] | GI50 [7] | GI50 [8] | GI50 [9] | GI50 [10]
1 | COc1ccc(-c2c(C3=NCCN3)nnn2-c2ccccc2)cc1 | > 100 µM | > 100 µM | > 100 µM | > 100 µM | > 100 µM | > 100 µM | > 100 µM | > 100 µM | > 100 µM | > 100 µM | – | – | – | – | – | – | – | – | – | –
2 | CC(=O)Oc1cc(C)ccc1[C@]1(C)CC[C@H](C)/C1=C\Br | 11.4 µM | 16.6 µM | 22.2 µM | 18.5 µM | 11.5 µM | 5.06 µM | 8.09 µM | 5.1 µM | 14.3 µM | 19.6 µM | 3.71 µM | 4.92 µM | 9.22 µM | 6.67 µM | 3.32 µM | 2.45 µM | 2.71 µM | 2.32 µM | 4.09 µM | 6.31 µM
3 | O=C(Nc1ccccc1C(F)(F)F)c1cccc(NC2=C(Cl)C(=O)N(Cc3ccccc3)C2=O)c1 | > 100 µM | 41.7 µM | > 52.2 µM | 52.6 µM | 3.04 µM | > 100 µM | > 100 µM | 34.8 µM | > 40.1 µM | > 76.8 µM | 3.55 µM | 6.68 µM | 19.1 µM | 13.2 µM | – | 65.6 µM | 13.1 µM | 12.1 µM | 12.4 µM | 23 µM
4 | COC(=O)c1c(-c2ccccc2)cc2c3cc(-c4ccccc4)c(C(=O)OC)n3c3ccccc3n12 | > 100 µM | > 100 µM | > 100 µM | > 100 µM | > 100 µM | > 100 µM | > 100 µM | > 100 µM | > 100 µM | > 100 µM | – | – | – | – | – | – | – | – | – | –
5 | COc1cc(-c2cc(=O)c3cc4c(cc3[nH]2)OCO4)cc(OC)c1OC | > 100 µM | > 100 µM | 65.2 µM | > 100 µM | > 100 µM | > 100 µM | > 100 µM | > 100 µM | > 100 µM | > 100 µM | – | – | – | – | – | – | – | – | – | –
6 | C=CCNC(=S)N1CC(C)C(=O)Nc2ccccc21 (centres undefined) | > 100 µM | > 100 µM | > 100 µM | > 100 µM | > 100 µM | > 100 µM | > 100 µM | > 100 µM | > 100 µM | > 100 µM | – | – | – | – | – | – | – | – | – | –
7 | CC(=O)N/C(=C\c1ccc(/C=C(\NC(C)=O)c2nc3ccc(Cl)cc3[nH]2)cc1)c1nc2ccccc2[nH]1 | > 100 µM | > 100 µM | > 100 µM | > 100 µM | > 100 µM | > 100 µM | > 100 µM | > 100 µM | > 100 µM | > 100 µM | – | – | – | – | – | – | – | – | – | –
8 | O=C1c2cc(Br)ccc2-c2c1c1ccc([N+](=O)[O-])cc1c(=O)n2CCCCl | > 43.7 µM | 15.6 µM | 8.28 µM | > 100 µM | 1.02 µM | 12.1 µM | 0.647 µM | 3.31 µM | 2.26 µM | 1.78 µM | < 0.0495 µM | < 0.0219 µM | 0.837 µM | 10.6 µM | 0.24 µM | 0.309 µM | < 0.0289 µM | 0.182 µM | 0.659 µM | 0.534 µM
9 | CC(C)=CC(C(O)c1ccccc1)S(=O)(=O)c1nccn1C (centres undefined) | > 100 µM | > 100 µM | > 100 µM | > 100 µM | > 100 µM | > 100 µM | > 100 µM | > 100 µM | > 100 µM | > 100 µM | – | – | – | – | – | – | – | – | – | –
